These results are taken from patent US7759510B2, “Platinum complexes and methods of use” (University of South Florida, priority 2003, dated 2010).

Where two headings read alike, the source gives them in different places.

For one test, the target named is T1, Stat3 (Mus musculus, UniProt P42227).
T1 construct: Nuclear extracts were prepared from NIH3T3/hEGFR cell that overexpress human epidermal growth factor (EGF) receptor and stimulated with EGF; endogenous in cells; host or cells: NIH3T3/hEGFR fibroblasts, EGF-stimulated (6 ng/ml, 15 min), nuclear extract
The test is described as follows: EMSA of nuclear extracts, Stat3 DNA-binding activity to hSIE probe. The note with it: in vitro. Format: biochemical. As for the experimental part:
Nuclear Extract Preparation and Analysis by EMSA of HK-Designated Platinum Complexes.
Nuclear extracts were prepared from NIH3T3/hEGFR cell that overexpress human epidermal growth factor (EGF) receptor and stimulated with EGF (6 ng/ml) for 15 min. Nuclear extracts were pre-incubated with compounds for 30 min at room temperature prior to incubation with radiolabeled probe. The ^32P-labeled oligonucleotide probe used is hSIE (high affinity sis-inducible element, m67 variant, 5′-[…]-3′) (SEQ ID NO:1) that binds both Stat1 and Stat3.
Other platinum (IV) complexes were evaluated for inhibitory activity against STAT DNA-binding in vitro.
A general note: In EMSA bound probe runs differently from free probe, usually more slowly.

Another test has as its system A549 cells. The test is described as follows: MTT assay, percent survival of A549 cells. Format: cell-based. To be noted: A549; for IC50: Table 7, linear trend from percent survival vs. concentration data, read-out: Calculated IC 50 (uM concentration). How it is done:
1. Prepare a suspension of A549 cells at 2×10^5 cells per mL in supplemented DMEM/F12 growth medium.
2. Plate 2×10^4 cells per well in a 96 well cell culture plate by adding 100 μL of stock suspension to each well.
3. For each platinum compound (already in solution), prepare a readily usable stock solution in DMEM/F12 medium.
4. For each compound generate triplicate trials of 0, 10, 20, 30, 40, 50, 60, and 70 μM concentration. This is achieved in situ by adding appropriate volumes of stock solution to each well along with the volume of untreated medium necessary to generate the desired concentration in a final volume of 200 μL.
5. Gently agitate plates to mix contents. Incubate at 37° C., 7% CO2 for 45 hours.
6. Add 20 μL of 5 mg/mL MTT solution (in PBS) to each well.
7. Gently agitate plates to mix contents and incubate an additional 3 hours to allow product development.
8. Remove plates from incubator and agitate to cause settling of formazan product.
9. Aspirate out liquid contents of each well using needle and syringe and discard.
10. Add 200 μL DMSO to each well to dissolve formazan product.
11. Agitate plates until all of the formazan product is in solution and no purple crystals remain on the bottom surface of the wells.
12. Read the absorbance of each well at […] using Varian software for Cary 50 UV-vis Spectrophotometer with fiber optic probe accessory.
(§1) MTT assays are used for the quantitative determination of cellular proliferation and activation and for the quantitation of in vitro tumor cell sensitivity to anti-cancer compounds. The assay is based on the cleavage of the yellow tetrazolium salt MTT into purple colored formazan by metabolically active cells. Solubilized formazan product can be photometrically quantitated using an ELISA plate reader. A decrease in the number of living cells results in a decrease in total metabolic activity which leads to a decrease in color formation. Platinum complexes of the present invention were tested in MTT assays using A549 cells to determine anti-cancer cell activity. […] FIGS. 1, 2, and 4 show percent survival versus platinum complex concentration in graphical form.
as §1, with “FIGS. 8, 9,” for “FIGS. 1, 2,”, “and 11” for “and 4”

T1 sequence (P42227 whole entry): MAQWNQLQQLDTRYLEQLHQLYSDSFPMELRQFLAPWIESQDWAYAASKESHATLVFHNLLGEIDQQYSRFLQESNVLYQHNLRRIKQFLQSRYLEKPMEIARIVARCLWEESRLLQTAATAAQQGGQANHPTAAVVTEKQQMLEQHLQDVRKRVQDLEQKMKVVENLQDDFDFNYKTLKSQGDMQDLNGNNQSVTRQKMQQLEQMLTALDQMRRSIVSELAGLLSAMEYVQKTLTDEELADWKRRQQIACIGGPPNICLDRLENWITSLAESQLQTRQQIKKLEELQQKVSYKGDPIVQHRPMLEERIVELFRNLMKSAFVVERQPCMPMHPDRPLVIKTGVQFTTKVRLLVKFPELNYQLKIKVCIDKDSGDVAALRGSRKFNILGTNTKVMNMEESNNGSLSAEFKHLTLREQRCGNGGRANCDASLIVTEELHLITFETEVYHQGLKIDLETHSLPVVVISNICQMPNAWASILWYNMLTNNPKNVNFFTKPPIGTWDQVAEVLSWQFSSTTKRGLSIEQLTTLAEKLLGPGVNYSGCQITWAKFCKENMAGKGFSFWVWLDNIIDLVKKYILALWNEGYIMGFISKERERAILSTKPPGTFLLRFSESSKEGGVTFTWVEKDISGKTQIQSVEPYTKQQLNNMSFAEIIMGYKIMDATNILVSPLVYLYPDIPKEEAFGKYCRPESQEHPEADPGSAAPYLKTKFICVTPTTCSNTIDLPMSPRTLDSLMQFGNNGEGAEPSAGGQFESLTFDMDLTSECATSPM

Consider `[NH2][Pt]([NH2])([Cl])([Cl])([Br])[N+](=O)[O-]` [CPA-10], for which the “Disruption of Stat3 activity / ability to bind its consensus binding sequence” value at Stat3 is “strongly disrupt Stat3 activity”.

As to `O=C1C(Br)=CC2=C(c3ccccc3C(=O)[O-])C3C=C(Br)C([O-])=C(Br)C3OC2=C1Br.[NH2][Pt]([NH2])([Cl])([Cl])[N+](=O)[O-]` (centres unmarked) [CPA-30], the “Disruption of Stat3 activity / ability to bind its consensus binding sequence” value at Stat3 is on record as “strongly disrupt Stat3 activity”.

Consider `CO[C@H]1O[C@H](CO)[C@@H](O)[C@H](O)[C@@H]1O` [Methyl alpha-D-Mannopyranoside], for which, in the test on A549 cells (Homo sapiens), the IC50 is 50.1 µM. Moreover, the “Average Absorbance” value was 2.4582 with A549 cells (Table 6, 10 μM); 2.4610 in the test on A549 cells (Table 6, 20 μM); 2.1544 in the test on A549 cells (Table 6, 30 μM); 1.1005 in the test on A549 cells (Table 6, 40 μM); 0.6631 in the test on A549 cells (Table 6, 50 μM); 0.9420 in the test on A549 cells (Table 6, 60 μM). In addition, the “Average Absorbance” value in the test on A549 cells (Table 6, 70 μM) was 0.8479; with A549 cells (Table 8, 10 μM), 2.6117; in the test on A549 cells (Table 8, 20 μM) it was 2.4353; in the test with A549 cells (Table 8, 30 μM), 1.7315; in the test with A549 cells (Table 8, 40 μM) it was 0.6173; in the test on A549 cells (Table 8, 50 μM) it was 0.4370. For the same compound, the “Average Absorbance” value with A549 cells (Table 8, 60 μM) was determined as 0.5017; in the test on A549 cells (Table 8, 70 μM), 0.5339. Moreover, the “Percent Survival” value with A549 cells (Table 6, 10 μM) was found to be 104.1125%; with A549 cells (Table 6, 20 μM), 104.2311%; in the test with A549 cells (Table 6, 30 μM), 91.2456%; in the test with A549 cells (Table 6, 40 μM), 46.6096%; in the test with A549 cells (Table 6, 50 μM) it was 28.0844%; in the test with A549 cells (Table 6, 60 μM) it was 39.8967%. The “Percent Survival” value in the test with A549 cells (Table 6, 70 μM) was 35.9112%; in the test on A549 cells (Table 8, 10 μM), 106.9098%; in the test on A549 cells (Table 8, 20 μM) it was 99.6889%; in the test with A549 cells (Table 8, 30 μM), 70.8789%; in the test on A549 cells (Table 8, 40 μM) it was 25.2691%; in the test on A549 cells (Table 8, 50 μM) it was 17.8886%. Further, the “Percent Survival” value is 20.5371% in the test on A549 cells (Table 8, 60 μM) and 21.8552% in the test on A549 cells (Table 8, 70 μM).

With `CC(=O)N[C@H]1C(O)O[C@H](CO)[C@@H](O)[C@@H]1O` (some centres unmarked) [N-acetyl glucosamine], the “Average Absorbance” value with A549 cells (Table 9, 10 μM) was 0.6179; in the test on A549 cells (Table 9, 20 μM), 0.378; in the test with A549 cells (Table 9, 30 μM), 0.1735; in the test with A549 cells (Table 9, 40 μM) it was 0.02397; in the test on A549 cells (Table 9, 50 μM) it was 0.0397; in the test with A549 cells (Table 9, 60 μM), 0.05523. The “Average Absorbance” value in the test on A549 cells (Table 9, 70 μM) is 0.01897. Also, the “Percent Survival” value is listed as 96.89% in the test on A549 cells (Table 9, 10 μM); 59.27% in the test with A549 cells (Table 9, 20 μM); 27.21% in the test on A549 cells (Table 9, 30 μM); 3.758% in the test with A549 cells (Table 9, 40 μM); 6.226% in the test on A549 cells (Table 9, 50 μM); 8.662% in the test with A549 cells (Table 9, 60 μM). Besides, the “Percent Survival” value with A549 cells (Table 9, 70 μM) turned out to be 2.974%.

As for `Cn1c(=O)c2[nH]cnc2n(C)c1=O` [Theophylline], the “Average Absorbance” value came out at 0.5681 in the test with A549 cells (Table 9, 10 μM); 0.3864 in the test on A549 cells (Table 9, 20 μM); 0.2159 in the test on A549 cells (Table 9, 30 μM); 0.0585 with A549 cells (Table 9, 40 μM); 0.0047 with A549 cells (Table 9, 50 μM); 0.03173 in the test on A549 cells (Table 9, 60 μM). In addition, in the test with A549 cells (Table 9, 70 μM), the “Average Absorbance” value is given as −0.001567. The “Percent Survival” value in the test with A549 cells (Table 9, 10 μM) worked out at 89.1%; with A549 cells (Table 9, 20 μM), 60.6%; in the test on A549 cells (Table 9, 30 μM) it was 33.86%; in the test on A549 cells (Table 9, 40 μM), 9.174%; in the test with A549 cells (Table 9, 50 μM), 0.7371%; in the test with A549 cells (Table 9, 60 μM) it was 4.976%. In addition, the “Percent Survival” value in the test on A549 cells (Table 9, 70 μM) is recorded as −0.2457%.

Turning to Caffeine, the “Average Absorbance” value in the test with A549 cells (Table 9, 10 μM) was determined as 0.4606; in the test on A549 cells (Table 9, 20 μM), 0.3935; with A549 cells (Table 9, 30 μM) it was 0.2016; in the test with A549 cells (Table 9, 40 μM), 0.08893; in the test with A549 cells (Table 9, 50 μM), 0.04983; with A549 cells (Table 9, 60 μM), 0.06103. The “Average Absorbance” value in the test with A549 cells (Table 9, 70 μM) was found to be 0.05103. The “Percent Survival” value is reported as 72.24% with A549 cells (Table 9, 10 μM); 61.71% in the test on A549 cells (Table 9, 20 μM); 31.62% in the test with A549 cells (Table 9, 30 μM); 13.95% in the test on A549 cells (Table 9, 40 μM); 7.815% with A549 cells (Table 9, 50 μM); 9.571% with A549 cells (Table 9, 60 μM). The “Percent Survival” value with A549 cells (Table 9, 70 μM) was 8.003%.

Consider Methylene blue, for which the “Average Absorbance” value in the test with A549 cells (Table 6, 10 μM) came to 2.3750; in the test with A549 cells (Table 6, 20 μM), 2.2927; in the test on A549 cells (Table 6, 30 μM) it was 2.2510; in the test with A549 cells (Table 6, 40 μM), 1.5702; in the test on A549 cells (Table 6, 50 μM), 0.8542; with A549 cells (Table 6, 60 μM) it was 1.1911. Moreover, the “Average Absorbance” value in the test on A549 cells (Table 6, 70 μM) came out at 0.9505; with A549 cells (Table 8, 10 μM), 2.5299; with A549 cells (Table 8, 20 μM), 2.1653; with A549 cells (Table 8, 30 μM), 1.6536; in the test with A549 cells (Table 8, 40 μM), 0.7522; in the test with A549 cells (Table 8, 50 μM) it was 0.6302. The “Average Absorbance” value in the test on A549 cells (Table 8, 60 μM) came to 0.7701; in the test on A549 cells (Table 8, 70 μM), 0.7481. In addition, the “Percent Survival” value stood at 100.5887% with A549 cells (Table 6, 10 μM); 97.1030% in the test on A549 cells (Table 6, 20 μM); 95.3369% in the test on A549 cells (Table 6, 30 μM); 66.5029% with A549 cells (Table 6, 40 μM); 36.1781% in the test on A549 cells (Table 6, 50 μM); 50.4468% in the test with A549 cells (Table 6, 60 μM). Moreover, the “Percent Survival” value is listed as 40.2567% in the test on A549 cells (Table 6, 70 μM); 103.5613% in the test on A549 cells (Table 8, 10 μM); 88.6365% in the test on A549 cells (Table 8, 20 μM); 67.6900% in the test on A549 cells (Table 8, 30 μM); 30.7913% in the test with A549 cells (Table 8, 40 μM); 25.7972% in the test with A549 cells (Table 8, 50 μM). Also, the “Percent Survival” value in the test on A549 cells (Table 8, 60 μM) came to 31.5240%; in the test on A549 cells (Table 8, 70 μM), 30.6234%. The IC50 in the test on A549 cells is 56.4 µM.

With Safranin, the “Average Absorbance” value with A549 cells (Table 9, 10 μM) is given as 0.4933; in the test with A549 cells (Table 9, 20 μM), 0.4394; with A549 cells (Table 9, 30 μM) it was 0.2197; with A549 cells (Table 9, 40 μM) it was 0.07453; in the test on A549 cells (Table 9, 50 μM) it was 0.05293; in the test with A549 cells (Table 9, 60 μM), 0.0432. In addition, the “Average Absorbance” value in the test with A549 cells (Table 9, 70 μM) was found to be 0.05447. Moreover, the “Percent Survival” value in the test on A549 cells (Table 9, 10 μM) came out at 77.35%; in the test on A549 cells (Table 9, 20 μM) it was 68.9%; in the test with A549 cells (Table 9, 30 μM) it was 34.46%; in the test on A549 cells (Table 9, 40 μM) it was 11.69%; with A549 cells (Table 9, 50 μM), 8.301%; in the test with A549 cells (Table 9, 60 μM) it was 6.775%. Also, in the test with A549 cells (Table 9, 70 μM), the “Percent Survival” value was found to be 8.541%.
